Earlier results on five compounds are cited in patent publication US6593300B1, “(3R)-3-amino-4-carboxybutyraldehyde derivatives inhibiting the release of interleukin-1/beta” (Gyogyszerkutato Intezet Kft., priority 1997, dated 2003).

The target in data set [1] is T1, ICE (IL-1β converting enzyme) (Homo sapiens, UniProt P29466).
T1 sequence (P29466 120-297): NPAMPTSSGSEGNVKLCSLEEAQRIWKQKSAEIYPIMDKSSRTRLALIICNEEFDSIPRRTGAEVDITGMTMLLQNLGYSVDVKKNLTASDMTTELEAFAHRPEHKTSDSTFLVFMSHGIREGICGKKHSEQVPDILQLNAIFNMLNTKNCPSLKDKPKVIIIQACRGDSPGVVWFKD
T1 sequence (P29466 317-404): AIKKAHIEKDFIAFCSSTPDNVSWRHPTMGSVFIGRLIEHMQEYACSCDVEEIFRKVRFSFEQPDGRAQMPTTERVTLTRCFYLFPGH
Conditions: literature reports.

The next data set addresses T2, ICE (Mus musculus, UniProt P29452).
T2 construct: in the mouse, in the “tissue chamber” model as well as in lipopolysaccharide (LPS) induced fever or septic shock models; host or cells: mouse (whole animal, endogenous enzyme)
T2 sequence (P29452 119-296 limits assumed): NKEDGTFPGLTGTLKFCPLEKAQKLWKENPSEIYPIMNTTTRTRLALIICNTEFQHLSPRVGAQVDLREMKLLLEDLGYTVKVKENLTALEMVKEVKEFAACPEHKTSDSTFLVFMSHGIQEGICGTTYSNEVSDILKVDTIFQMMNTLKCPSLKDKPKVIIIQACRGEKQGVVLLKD
T2 sequence (P29452 315-402 limits assumed): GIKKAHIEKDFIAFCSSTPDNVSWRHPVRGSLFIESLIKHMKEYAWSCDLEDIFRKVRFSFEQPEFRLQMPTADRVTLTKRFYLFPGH
Conditions: "tissue chamber" model, LPS induced fever or septic shock models.

`O=c1oc(Cl)c(Cl)c2ccccc12` [3,4-dichloro-isocoumarine]: the ICE inhibiting effect result in data set [1] is “inhibited”.

With `CC(C)C[C@H](NC(=O)[C@H]1O[C@@H]1C(=O)O)C(=O)NCCCCN=C(N)N` [Example E64], the ICE inhibiting effect entry in data set [1] was “not inhibited”.

Regarding `O=C(O)CC(CC(=O)COC(=O)c1c(Cl)cccc1Cl)NC(=O)OCc1ccccc1` (centres unmarked) [Z-AhAsp-CH2DCB, Z-NH—CH(CH2COOH)—CH2—CO—CH2DCB], the ICE inhibiting effect result in data set [1] is on record as “ineffective”.

Regarding `O=C(O)C[C@H](NC(=O)OCc1ccccc1)C(=O)COC(=O)c1c(Cl)cccc1Cl` [Z-Asp-CH2DCB, Z-NH—CH(CH2COOH)—CO—CH2DCB], the ICE inhibiting effect result in data set [1] is reported as “significant ICE inhibiting effect”.

Regarding “Ac-Tyr-Val-Ala-Asp-H: first reversible inhibitor of ICE, tetrapeptide aldehyde”, in the data set with ICE, the in vivo efficacy result was “confirmed”.
